Data as given in PubChem BioAssay (NCI).
Where “and” joins values, the source holds several entries; their conditions need not be identical. Identical values can stand only once.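 Cells were grown in 96-well plates and exposed to each compound for 48 hours at five concentrations; endpoints were interpolated linearly between bracketing concentrations, or set to the highest concentration if not reached. GI50 is the concentration that inhibits growth by half. TGI is the concentration that stops growth completely.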

Assays:
Assay in all cases: NCI-60 cell line screen, 48 h
M14 melanoma = test system: M14 melanoma
SK-OV-3 ovarian = test system: SK-OV-3 ovarian
MOLT-4 leukemia = test system: MOLT-4 leukemia
TK-10 renal = test system: TK-10 renal
NCI/ADR-RES ovarian = test system: NCI/ADR-RES ovarian
SK-MEL-5 melanoma = test system: SK-MEL-5 melanoma
K-562 leukemia = test system: K-562 leukemia
UO-31 renal = test system: UO-31 renal
NCI-H226 lung = test system: NCI-H226 lung
COLO 205 colon = test system: COLO 205 colon

| SMILES | TGI (M14 melanoma) | TGI (SK-OV-3 ovarian) | TGI (MOLT-4 leukemia) | TGI (TK-10 renal) | TGI (NCI/ADR-RES ovarian) | TGI (SK-MEL-5 melanoma) | TGI (K-562 leukemia) | TGI (UO-31 renal) | TGI (NCI-H226 lung) | TGI (COLO 205 colon) | GI50 (M14 melanoma) | GI50 (SK-OV-3 ovarian) | GI50 (MOLT-4 leukemia) | GI50 (TK-10 renal) | GI50 (NCI/ADR-RES ovarian) | GI50 (SK-MEL-5 melanoma) | GI50 (K-562 leukemia) | GI50 (UO-31 renal) | GI50 (NCI-H226 lung) | GI50 (COLO 205 colon) |
| --- | --- | --- | --- | --- | --- | --- | --- | --- | --- | --- | --- | --- | --- | --- | --- | --- | --- | --- | --- | --- |
| CS(=O)(=O)c1cc(=O)c2ccccc2s1 | 3.44 µM | 32.3 µM | 3.92 µM | 13.7 µM | 38.8 µM | 28.5 µM | 3 µM | 29.4 µM | 20.3 µM | 3.26 µM |  |  |  |  |  |  |  |  |  |  |
| CCC(=O)c1c(C(F)(F)F)n([O-])c2ccc(C)cc2[n+]1=O | > 50 µM | 49.3 µM | > 50 µM | 6.61 µM | 36.5 µM | 13.9 µM | > 50 µM | > 50 µM | > 50 µM | 19.6 µM | 15.3 µM | 8.45 µM | 14.1 µM | 0.812 µM | 6.14 µM | 4.33 µM | 3.4 µM | 1.48 µM | 10.8 µM | 5.24 µM |
| Nc1nc(-c2cccc(Cl)c2)c(-c2ccc3ncccc3n2)s1 | > 25 µM | > 25 µM | > 25 µM | > 25 µM | > 25 µM | > 25 µM | > 25 µM | > 25 µM | > 25 µM | > 25 µM | > 25 µM | > 25 µM | > 25 µM | > 17.2 µM | > 25 µM | > 19.6 µM | > 25 µM | 10.1 µM | > 22 µM | > 25 µM |
| O=C(O)[C@@H]1CCCCN1Cc1cc2cc3c(cc2c2cc(OCc4ccccc4)ccc12)OCO3 | 30.4 µM | 34.3 µM | > 100 µM | > 100 µM | 39.6 µM | 3.61 µM | > 100 µM | 17.4 µM | 5.7 µM | 15.8 µM | 16.5 µM | 6.47 µM | 63.3 µM | 3.36 µM | 19.3 µM | 1.62 µM | 36.7 µM | 4.77 µM | 2.09 µM | 3.05 µM |
| COc1ccc(OC)c(C(=O)c2oc3ccc(Br)cc3c2N)c1 | 16.3 µM | 7.07 µM | 23.7 µM | 87.7 µM | > 77.7 µM | 16.9 µM | 35.2 µM | > 69.3 µM | > 100 µM | 2.11 µM | 0.303 µM | 0.515 µM | 0.425 µM | 1.74 µM | 0.341 µM | 0.41 µM | 0.082 µM | 0.707 µM | 2.38 µM | 0.406 µM |
| COC(=O)c1c(C)[nH]c(/C=C2\N=C(c3ccc[nH]3)C=C2OC)c1C | 0.619 µM | > 100 µM | > 36.5 µM | 4.03 µM | 4.6 µM | 0.665 µM | > 27.5 µM | 0.28 µM | 7.92 µM | 1.6 µM | 0.209 µM | 2.69 µM | 0.0495 µM | 0.141 µM | 0.109 µM | 0.225 µM | 0.764 µM | 0.113 µM | 1.66 µM | 0.288 µM |
| Cc1ccc(NC(=O)NCCCOc2ccc(N3C(N)=NC(N)=NC3(C)C)cc2Cl)cc1S(=O)(=O)F | > 100 µM | > 100 µM | > 100 µM |  | > 100 µM | 21.5 µM | > 100 µM | > 100 µM | > 100 µM | 95.7 µM | 7.81 µM | 43.6 µM | 9.26 µM |  | > 100 µM | 1.88 µM | 0.677 µM | > 100 µM | 58.1 µM | 13.6 µM |
| C/C(=N\Nc1ccc(Cl)cn1)c1ccccn1 |  | 26.9 µM | > 42 µM | 97.7 µM | > 31.6 µM | 5.48 µM | > 100 µM | 1.86 µM | 2.65 µM | 36.7 µM |  | 0.098 µM | 0.026 µM | 2.06 µM | 0.037 µM | 0.343 µM | 0.029 µM | 0.0344 µM | 0.0939 µM | 0.0227 µM |
| NCCCn1c2c(c3ccc([N+](=O)[O-])cc3c1=O)C(=O)c1cc(Br)ccc1-2 | 0.435 µM and 0.165 µM | 2.03 µM |  | 0.942 µM | 0.203 µM and 0.206 µM | 0.15 µM and 0.251 µM | 0.264 µM | 0.184 µM | 0.326 µM and 0.0684 µM | 2.34 µM | 0.185 µM | 0.348 µM |  | 0.267 µM and 0.28 µM | 0.0352 µM | 0.0265 µM and 0.0338 µM | 0.00813 µM | 0.0575 µM | 0.0451 µM and 0.011 µM | 0.0946 µM and 0.79 µM |
